In patent publication US20240067657A1, “AMIDO-SUBSTITUTED PYRIDYL COMPOUNDS AND METHODS OF USE THEREOF FOR THE TREATMENT OF HERPESVIRUSES” (Merck Sharp & Dohme LLC, priority 2020, published 2024):
Like-named read-outs stand apart in the source and are kept apart here.

Key:
[1] = target: T1, Human cytomegalovirus DNA polymerase (Human cytomegalovirus, UniProt P08546); assay: HCMV polymerase assay (AlphaLISA, IC50); type: biochemical; details: polymerase assay of Example 190
T1 construct: made in house; host or cells: SF21 insect cells (baculovirus vector)
Method: (§1) Human cytomegalovirus and varicella zoster virus DNA polymerases were expressed via baculovirus vector in SF21 cells and purified. Heterodimeric nucleic acid substrate used in the herpesvirus polymerase reactions was generated by annealing a 59-mer template to a 17-mer digoxigenin-labeled primer. Polymerase (HCMV final concentration of 0.2 nM; VZV final concentration of 0.4 nM) was combined with an inhibitor compound or DMSO in assay buffer (10 mM HEPES, pH 7.5, 25 mM KCl, 25 mM NaCl, 5 mM MgCl2, 5% glycerol, 0.67 mg/ml bovine serum albuminutes, and 1 mM tris(2-carboxyethyl)phosphine), and this mixture was pre-incubated for 30 minutes at room temperature in 384-well microtiter plates. The polymerization reaction was initiated by the addition of template/primer substrate (final concentration: 1.6 nM), and dNTPs (final concentration: 24 nM dCTP, 24 nMdGTP, 16 nM dATP, 16 nM dTTP, and 0.8 nM biotin-dUTP). After 60 minutes incubation at 37° C., reactions were terminated with quench buffer (25 mM HEPES pH 7.5, 100 mM NaCl, 0.25% Tween-20, 12 mM EDTA, and 1 mg/ml bovine serum albumin). Incorporation of biotinylated UTP was detected with 2.5-5 ug/ml anti-DIG AlphaLISA acceptor beads and 5-10 ug/ml streptavidin AlphaLISA donor beads (Perkin Elmer). Compound effects were normalized to the window defined by the controls (DMSO only and pre-quenched wells), and were fit using a 4-parameter algorithm to report an IC50.

[2] = tested on: HCMV Strain AD169 in MRC-5 cells; assay: Viral qPCR assay HCMV (V0/V1, V2/V3), EC50; type: cell-based; details: Human betaherpesvirus 5, AD169, MRC5, viral qPCR assay of Example 191; read-out: HCMV Cell (EC50)
Method: (§2) Viral qPCR Assays (V0/V1)
(§3) MRC5 cells, Vero cells, and MeWo cells were obtained from ATCC and were maintained at 37° C./5% CO2/90% relative humidity in Minimal Essential Medium with 10% fetal bovine serum, […] L-glutamine, 100 units/ml penicillin and 100 ug/ml streptomycin. Assay plates were prepared by dispensing compounds dissolved in DMSO into wells of 384 well collagen-coated plates using an ECHO acoustic dispenser. Each compound was tested in a 10-point, serial 3-fold dilution. Controls included uninfected cells and infected cells treated only with DMSO. Assays were initiated by mixing selected cells, in suspension, with virus, and dispensing 50 μl/well infected cells to pre-plated compounds. Plates were incubated at 37° C./5% CO2/90% relative humidity for ˜72 hrs to permit genomic replication, and infected cells were lysed by the addition of an equal volume of lysis buffer (10 mM Tris-HCl, pH8, 50 mM KCl, 2 mM MgCl2, 0.45% NP-40, 0.45% Tween-20, and 100 μg/ml proteinase K). An aliquot of the lysate was transferred to a 384-well PCR plate and incubated at 56° C. for 1 hour and then at 95° C. for 10 min. Levels of a viral gene and of the cellular control, PPIA (Thermo Fisher Assay ID=Hs04194521_s1), were measured in separate 10 μL qPCR assays using TaqMan® Gene Expression Master Mix (Applied Biosystems), and an 7900HT Fast Real-Time PCR System with 384-Well Block Module. 7-point, serial 10-fold dilutions of a plasmid standard were run on each plate to generate a standard curve, and genome copies numbers were calculated by plotting experimental Ct onto linear regression of the standard curve. Viral genome copy numbers were normalized by cellular control copy number, and compound effects were normalized to the window defined by the controls. Calculated % effects were fit using a 4-parameter algorithm, and EC50 was reported.
(§4) Viral qPCR Assays (V2/V3)
as §3, with “gene” for “gene and of the cellular control, PPIA (Thermo Fisher Assay ID=Hs04194521_s1),”, “in” for “in separate”, “Compound effects on viral” for “Viral”, “number” for “numbers were normalized by cellular control copy number, and compound effects”, “reported. • HCMV: Strain AD169 Street was assayed in MRC-5 cells and was used at 0.05-0.1 pfu/cell. The assays were performed in either growth media or in the same media with 50% fetal bovine serum. Primer-probe set was Thermo Fisher Assay ID=AIFATFK. • VZV: Strain Street was maintained as an infected cell stock in MRC-5 cells. It was assayed in MeWo or MRC5 cells and was used at 0.04-0.1 pfu/cell. […]” for “reported.”

[3] = tested on: HSV-1 Strain F in Vero or MRC5 cells; assay: Viral qPCR assay HSV-1 (V0/V1, V2/V3), EC50; type: cell-based; details: 10%
Method: as §2, §3, §4
as §3, with “gene” for “gene and of the cellular control, PPIA (Thermo Fisher Assay ID=Hs04194521_s1),”, “in” for “in separate”, “Compound effects on viral” for “Viral”, “number” for “numbers were normalized by cellular control copy number, and compound effects”, “reported. • HCMV: Strain AD169 Street was assayed in MRC-5 cells and was used at 0.05-0.1 pfu/cell. The assays were performed in either growth media or in the same media with 50% fetal bovine serum. Primer-probe set was Thermo Fisher Assay ID=AIFATFK. • VZV: Strain Street was maintained as an infected cell stock in MRC-5 cells. It was assayed in MeWo or MRC5 cells and was used at 0.04-0.1 pfu/cell. […]” for “reported.”

[4] = target: T2, varicella zoster virus DNA polymerase (Varicella-zoster virus, UniProt P09252); assay: VZV polymerase assay (AlphaLISA, IC50); type: biochemical; details: polymerase assay of Example 190
T2 construct: made in house; host or cells: SF21 insect cells (baculovirus vector)
Method: as §1

[5] = tested on: VZV in MeWo or MRC5 cells; assay: Viral qPCR assay VZV (V0/V1, V2/V3), EC50; type: cell-based; details: Human alphaherpesvirus 3, MRC5, MRC5 cells, 10%; read-out: VZV Cell (EC50) MRC5 10%
Method: as §2, §3, §4
as §3, with “gene” for “gene and of the cellular control, PPIA (Thermo Fisher Assay ID=Hs04194521_s1),”, “in” for “in separate”, “Compound effects on viral” for “Viral”, “number” for “numbers were normalized by cellular control copy number, and compound effects”, “reported. • HCMV: Strain AD169 Street was assayed in MRC-5 cells and was used at 0.05-0.1 pfu/cell. The assays were performed in either growth media or in the same media with 50% fetal bovine serum. Primer-probe set was Thermo Fisher Assay ID=AIFATFK. • VZV: Strain Street was maintained as an infected cell stock in MRC-5 cells. It was assayed in MeWo or MRC5 cells and was used at 0.04-0.1 pfu/cell. […]” for “reported.”

[6] = Human alphaherpesvirus 1, Vero, VERO cells, read-out: HSV1 Cell (EC50) VERO 10%
[7] = Human alphaherpesvirus 1, MRC5, MRC5 cells, read-out: HSV1 Cell (EC50) MRC5 10%

T2 sequence (P09252 whole entry): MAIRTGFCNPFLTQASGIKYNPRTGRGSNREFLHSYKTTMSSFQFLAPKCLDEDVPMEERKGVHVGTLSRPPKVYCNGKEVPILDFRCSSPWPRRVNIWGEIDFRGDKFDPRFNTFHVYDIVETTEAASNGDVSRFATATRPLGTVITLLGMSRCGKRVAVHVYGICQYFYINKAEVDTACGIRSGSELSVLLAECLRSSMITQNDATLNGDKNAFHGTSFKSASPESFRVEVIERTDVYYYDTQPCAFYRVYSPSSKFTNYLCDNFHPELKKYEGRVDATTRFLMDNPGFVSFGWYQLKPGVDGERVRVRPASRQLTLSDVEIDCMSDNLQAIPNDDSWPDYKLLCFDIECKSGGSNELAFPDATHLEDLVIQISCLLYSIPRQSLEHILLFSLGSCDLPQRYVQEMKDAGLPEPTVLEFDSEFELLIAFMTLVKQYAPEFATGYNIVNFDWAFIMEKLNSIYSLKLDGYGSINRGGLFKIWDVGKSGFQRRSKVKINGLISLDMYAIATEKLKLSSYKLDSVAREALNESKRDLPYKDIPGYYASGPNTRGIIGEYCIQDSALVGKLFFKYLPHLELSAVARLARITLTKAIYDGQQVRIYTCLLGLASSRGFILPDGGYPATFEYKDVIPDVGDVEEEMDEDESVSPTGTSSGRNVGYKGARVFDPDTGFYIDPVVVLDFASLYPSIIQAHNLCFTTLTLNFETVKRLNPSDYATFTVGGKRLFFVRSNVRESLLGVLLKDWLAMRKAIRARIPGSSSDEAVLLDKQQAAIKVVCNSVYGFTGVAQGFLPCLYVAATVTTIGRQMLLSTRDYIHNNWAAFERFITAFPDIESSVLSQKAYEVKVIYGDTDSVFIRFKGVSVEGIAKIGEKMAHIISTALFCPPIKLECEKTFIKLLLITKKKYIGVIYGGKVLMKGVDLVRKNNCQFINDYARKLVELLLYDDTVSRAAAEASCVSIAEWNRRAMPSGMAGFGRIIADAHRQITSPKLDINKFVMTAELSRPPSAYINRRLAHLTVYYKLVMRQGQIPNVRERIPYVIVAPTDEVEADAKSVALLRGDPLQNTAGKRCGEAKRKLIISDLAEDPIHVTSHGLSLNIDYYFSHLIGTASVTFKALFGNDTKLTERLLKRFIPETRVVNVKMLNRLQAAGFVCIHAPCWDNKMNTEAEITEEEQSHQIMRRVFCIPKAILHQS
T1 sequence (P08546 whole entry): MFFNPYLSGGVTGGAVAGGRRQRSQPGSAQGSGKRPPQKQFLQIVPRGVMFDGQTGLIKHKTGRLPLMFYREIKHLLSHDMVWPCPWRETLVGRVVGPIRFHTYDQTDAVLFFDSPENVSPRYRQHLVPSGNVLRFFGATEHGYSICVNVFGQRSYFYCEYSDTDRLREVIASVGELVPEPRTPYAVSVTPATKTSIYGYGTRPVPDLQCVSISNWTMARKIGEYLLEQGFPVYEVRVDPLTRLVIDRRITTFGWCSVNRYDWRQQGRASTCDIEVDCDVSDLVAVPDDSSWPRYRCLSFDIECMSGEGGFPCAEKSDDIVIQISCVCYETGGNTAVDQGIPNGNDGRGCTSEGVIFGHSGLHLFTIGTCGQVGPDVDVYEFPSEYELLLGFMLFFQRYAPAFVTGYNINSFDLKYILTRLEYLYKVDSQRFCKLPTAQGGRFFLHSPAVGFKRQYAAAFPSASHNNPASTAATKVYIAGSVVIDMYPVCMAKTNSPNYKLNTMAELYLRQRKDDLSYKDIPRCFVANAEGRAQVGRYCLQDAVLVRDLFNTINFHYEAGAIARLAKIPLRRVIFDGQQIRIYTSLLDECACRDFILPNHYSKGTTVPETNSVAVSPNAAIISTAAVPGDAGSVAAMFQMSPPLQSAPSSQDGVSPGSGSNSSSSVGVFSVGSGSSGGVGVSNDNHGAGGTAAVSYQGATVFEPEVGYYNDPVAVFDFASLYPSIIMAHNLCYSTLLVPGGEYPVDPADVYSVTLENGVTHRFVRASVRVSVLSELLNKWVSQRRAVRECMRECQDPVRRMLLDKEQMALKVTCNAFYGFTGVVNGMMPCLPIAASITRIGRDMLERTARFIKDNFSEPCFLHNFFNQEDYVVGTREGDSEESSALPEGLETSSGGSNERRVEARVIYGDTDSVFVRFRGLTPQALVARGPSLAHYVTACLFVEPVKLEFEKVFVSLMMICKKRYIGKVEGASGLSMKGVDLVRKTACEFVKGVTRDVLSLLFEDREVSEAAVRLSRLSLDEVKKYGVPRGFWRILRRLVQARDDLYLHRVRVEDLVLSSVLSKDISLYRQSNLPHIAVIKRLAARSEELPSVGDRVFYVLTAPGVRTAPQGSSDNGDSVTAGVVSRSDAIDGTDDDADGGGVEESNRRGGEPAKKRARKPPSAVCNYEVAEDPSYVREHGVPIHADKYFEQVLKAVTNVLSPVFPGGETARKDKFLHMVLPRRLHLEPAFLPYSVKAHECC

| SMILES | IC50 [1] | IC50 [4] | EC50 [2] | EC50 [3, 6] | EC50 [3, 7] | EC50 [5] |
| --- | --- | --- | --- | --- | --- | --- |
| Cn1cc(-c2cnc(C(=O)N3CCCC3c3ccc(Cl)cc3)cc2O[C@H]2CCN3C(=O)OC[C@@H]3C2)cn1 (stereo partly shown) [Compound 100] | 0.983 µM | 0.426 µM |  |  |  |  |
| CC(=O)N1CCC(Oc2cc(C)nc(C(=O)NCc3ccc(Cl)cc3)c2)CC1 [Compound 101] | 2.02 µM | 1.3 µM |  |  |  |  |
| CC(=O)N1CCC(Oc2cc(C(=O)NCc3ccc(Cl)cc3)ncc2C#Cc2ccc(C)cn2)CC1 [Compound 71] | 0.172 µM | 0.119 µM | 1.51 µM | 0.354 µM |  |  |
| COC/C=C/c1cnc(C(=O)NCc2ccc(Cl)cc2)cc1OC1CCN(C(C)=O)CC1 [Compound 74] | 0.083 µM | 0.035 µM | 1.44 µM | 0.28 µM |  |  |
| Cc1cnc(-c2cnc(C(=O)NCc3ccc(Cl)cc3)cc2OC(C)C)s1 [Compound 103] | 2.31 µM | 0.956 µM | 19.4 µM | 3 µM |  |  |
| O=C(NCc1ccc(Cl)cc1)c1cc(O[C@@H]2CCN3C(=O)OC[C@H]3C2)c(-c2cn[nH]c2)cn1 (racemic) [Compound 25] | 0.0139 µM | 0.00444 µM | 0.259 µM | 1.67 µM |  |  |
| O=C(NCc1cc(F)c(Cl)c(F)c1)c1cc(O[C@H]2CCN3C(=O)OC[C@@H]3C2)c(-c2cnn(C(F)F)c2)cn1 [Compound 80] | 0.00876 µM |  | 0.248 µM |  | 0.247 µM | 0.401 µM |
| CN1CCN(c2cc(C(=O)NCc3ccc(C#N)cc3)ncc2C#N)[C@H](CF)C1 [Compound 174] | 0.0365 µM |  | 0.472 µM |  | 0.966 µM | 1.19 µM |
| C[C@@H]1CN(c2cnc(C(=O)NCc3ccc(Cl)cc3)cc2O[C@H]2CCN3C(=O)OC[C@@H]3C2)C[C@H](C)[C@]1(C)O [Compound 124] | 0.172 µM |  | 1.27 µM |  | 2.85 µM | 6.05 µM |
| CC(=O)N1CCC(Oc2cc(C(=O)NCc3ccc(Cl)cc3)ncc2-c2cncs2)CC1 [Compound 51] | 0.0485 µM |  | 0.369 µM |  | 0.164 µM | 0.17 µM |
| CC(=O)N1CCC(Oc2cc(C(=O)NCc3ccc(Cl)cc3)ncc2-c2nnc(C)o2)CC1 [Compound 153] | 0.0662 µM |  | 0.478 µM |  | 0.636 µM | 0.913 µM |
| O=C(OCN(Cc1ccc(Cl)cc1)C(=O)c1cc(O[C@H]2CCN3C(=O)OC[C@@H]3C2)c(-c2cnn(C(F)F)c2)cn1)C1CCOCC1 [Compound 182] | 0.227 µM |  | 0.148 µM |  | 0.105 µM | 0.213 µM |
| CN1CCN(c2cc(C(=O)NCc3ccc(Cl)cc3)ncc2C#N)[C@H](CF)C1 [Compound 173] | 0.0123 µM |  | 0.279 µM |  | 0.833 µM | 0.682 µM |

Continued by falling IC50 [1], values first:

| IC50 [1] | IC50 [4] | SMILES | EC50 [2] | EC50 [3, 6] | EC50 [3, 7] | EC50 [5] |
| --- | --- | --- | --- | --- | --- | --- |
| 0.209 µM | 0.165 µM | CC(=O)N1CCC(Oc2cc(C(=O)NCc3ccc(Cl)cc3)ncc2C#Cc2cc(C)ccn2)CC1 [Compound 76] | 1.23 µM | 0.624 µM |  |  |
| 0.201 µM | 0.134 µM | O=C(NCc1ccc(Cl)cc1)c1cc(O[C@H]2CCN3C(=O)OC[C@@H]3C2)cc(CO)n1 [Compound 152] | 1.89 µM | 10.7 µM |  |  |
| 0.199 µM | 0.117 µM | Cc1ncc(-c2cc(O[C@H]3CCN4C(=O)OC[C@@H]4C3)cc(C(=O)NCc3ccc(Cl)cc3)n2)s1 [Compound 102] | 8.4 µM | 0.427 µM |  |  |
| 0.122 µM |  | CC(=O)N1CCC(Oc2cc(C(=O)NCc3ccc(Cl)cc3)ncc2-c2cnn(C)n2)CC1 [Compound 7] | 0.552 µM |  | 0.53 µM | 0.707 µM |
| 0.0932 µM | 0.045 µM | CC(=O)N1CCC(Oc2cc(C(=O)NCc3ccc(Cl)cc3)ncc2/C=C/CO)CC1 [Compound 73] | 1.78 µM | 0.842 µM |  |  |
| 0.0688 µM | 0.0518 µM | CC(=O)N1CCC(Oc2cc(C(=O)NCc3ccc(Cl)cc3)ncc2/C=C/CC(C)O)CC1 (stereo not shown) [Compound 72] | 0.855 µM | 1.11 µM |  |  |
| 0.0688 µM |  | CC(=O)N1CCC(Oc2cc(C(=O)NCc3ccc(Cl)cc3)ncc2-c2ccn(CS(C)(=O)=O)n2)CC1 [Compound 56] | 0.687 µM |  | 0.847 µM | 1.43 µM |
| 0.0591 µM | 0.0203 µM | O=C(NCc1ccc(Cl)cc1)c1cc(O[C@H]2CCN3C(=O)OC[C@@H]3C2)c(-c2ncco2)cn1 [Compound 4] | 0.292 µM | 0.21 µM |  |  |
| 0.0566 µM | 0.0184 µM | O=C(NCc1ccc(Cl)cc1)c1cc(O[C@H]2CCN3C(=O)OC[C@@H]3C2)c(CC2CCCO2)cn1 (mixture of isomers) [Compound 113] | 0.357 µM | 0.227 µM |  |  |
| 0.0467 µM | 0.00545 µM | Cc1cnc(C(=O)NCc2ccc(Cl)cc2)cc1O[C@H]1CCN2C(=O)CC[C@@H]2C1 [Compound 169] | 1.49 µM | 0.594 µM |  |  |
| 0.0456 µM | 0.0279 µM | O=C(NCc1ccc(Cl)cc1)c1cc(O[C@H]2CCN3C(=O)OC[C@@H]3C2)c(CO)cn1 [Compound 98] | 0.509 µM | 1.52 µM |  |  |
| 0.0292 µM |  | O=C(c1cc(O[C@H]2CCN3C(=O)OC[C@@H]3C2)c(-c2cnn(C(F)F)c2)cn1)N(CO)Cc1ccc(Cl)cc1 [Compound 180] | 0.183 µM |  | 0.176 µM | 0.265 µM |
| 0.0201 µM | 0.00804 µM | O=C(NCc1ccc(Cl)cc1)c1cc(O[C@H]2CCN3C(=O)OC[C@@H]3C2)c(O)cn1 [Compound 146] | 1.15 µM | 6.22 µM |  |  |
